PMC5762315, “Inhibition of polo-like kinase 4 (PLK4): a new therapeutic option for rhabdoid tumors and pediatric medulloblastoma” (Oncotarget, 2017)
“And” between values parts separate entries of the source, which are not always exact repeats. Equal values may be shown once.

Tests used:
various kinases [1] = target: various kinases (Homo sapiens, UniProt Q9Y2U5); assay: LanthaScreen Eu Kinase Binding Assay, panel of 486 biochemical kinase assays; details: MAP3K2 (MEKK2)
various kinases [2] = target: various kinases (Homo sapiens, UniProt Q92918); assay: as above; details: MAP4K1 (HPK1)
various kinases [3] = target: various kinases (Homo sapiens, UniProt P36507); assay: as above; details: MAP2K2 (MEK2)
various kinases [4] = target: various kinases (Homo sapiens, UniProt Q86UX6); assay: as above; details: kinase STK32C (YANK3); LanthaScreen Binding
various kinases [5] = target: various kinases (Homo sapiens, UniProt Q9HAZ1); assay: as above; details: CLK4
various kinases [6] = target: various kinases (Homo sapiens, UniProt Q92630); assay: as above; details: DYRK2
various kinases [7] = assay: as above
various kinases [8] = target: T1, various kinases (Homo sapiens, UniProt Q99640); assay: as above; details: kinase PKMYT1; LanthaScreen Binding
T1 sequence (Q99640 1-499): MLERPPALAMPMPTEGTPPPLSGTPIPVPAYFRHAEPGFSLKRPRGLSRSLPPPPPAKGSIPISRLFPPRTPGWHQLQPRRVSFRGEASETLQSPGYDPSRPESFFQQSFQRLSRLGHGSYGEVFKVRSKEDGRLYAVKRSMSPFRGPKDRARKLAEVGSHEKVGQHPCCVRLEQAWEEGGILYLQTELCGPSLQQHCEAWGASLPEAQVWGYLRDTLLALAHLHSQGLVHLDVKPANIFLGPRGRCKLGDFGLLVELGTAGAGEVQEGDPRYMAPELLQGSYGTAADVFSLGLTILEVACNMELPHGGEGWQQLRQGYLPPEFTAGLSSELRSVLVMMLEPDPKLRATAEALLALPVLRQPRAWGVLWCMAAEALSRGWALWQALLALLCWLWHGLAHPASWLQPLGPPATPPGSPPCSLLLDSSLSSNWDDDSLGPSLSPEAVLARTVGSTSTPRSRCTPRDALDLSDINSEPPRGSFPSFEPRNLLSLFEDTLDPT

various kinases [9] = target: various kinases (Homo sapiens, UniProt Q9Y616); assay: as above; details: IRAK3
various kinases [10] = target: various kinases (Homo sapiens, UniProt Q02750, S218D/S222D); assay: as above; details: MAP2K1 (MEK1) S218D S222D
[11] = test system: non-neoplastic human fibroblast cells (HFF-SCC058); assay: Immunofluorescence for gamma-tubulin (centriole number), fibroblasts; format: cell-based; details: 100nM and 500nM
Experimental: (§1) The cells were then blocked in blocking buffer (5% BSA (Jackson Immuno Research Laboratories Inc., USA) in PBST) for 1 hour at RT. The primary antibody ([…] 1:500, Sigma, USA) diluted in 1% BSA in PBST was then added and incubated at 4°C overnight. Then, the cells were washed with 1X PBS thrice. Secondary antibody (Anti-Rabbit IgG (H+L) F (ab’) 2, 1:500, Sigma, USA) diluted in 1% BSA in PBST was added and incubated at RT for 2 hours. Three time washes with 1X PBS were performed. Then, 1mL of DAPI (Thermo Fisher Scientific, USA) in PBS (0.5μl of DAPI in 10 ml PBS) was added to the cells and incubated for 10 min at RT. Finally, 3 time washes with 1X PBS were performed and slides were mounted using Mounting Medium (Thermo Fisher Scientific, USA).

DAOY MB cells = assay: Confluency assay (IncuCyte ZOOM), DAOY; format: cell-based, human; details: increasing concentrations starting at 31.25nM, 48 hours, p-value=0.029
Experimental: For further evaluation of the effect of the PLK4 inhibitor over tumor cell proliferation, confluency was measured over a 48 hour period. MON, BT-12, G401 and DAOY cells were plated in 96-well plates with a density of 6 x 10^4 per well. […] Confluency was monitored for 48 hours by taking phase contrast images every 2 hours and measured using an IncuCyte ZOOM system (Essen BioScience, USA). Experiments were performed in triplicates.

MON rhabdoid cells = assay: Immunofluorescence for gamma-tubulin (centriole number), MON; format: cell-based, human; details: 48 hours
Experimental: as §1

various kinases [12] = target: various kinases (Homo sapiens, UniProt O00329); assay: Adapta Universal Kinase Assay, panel of 486 biochemical kinase assays; details: PIK3CD/PIK3R1 (p110 delta/p85 alpha)
various kinases [13] = target: various kinases (Homo sapiens, UniProt Q8TF76); assay: as above; details: GSG2 (Haspin)
various kinases [14] = target: various kinases (Homo sapiens, UniProt Q99755); assay: as above; details: PIP5K1A
various kinases [15] = target: various kinases (Homo sapiens, UniProt P48736); assay: as above; details: PIK3CG (p110 gamma)
various kinases [16] = target: various kinases (Homo sapiens, UniProt P42336, E545K); assay: as above; details: PIK3CA E545K/PIK3R1 (p110 alpha E545K/p85 alpha)
various kinases [17] = target: various kinases (Homo sapiens, UniProt P50750); assay: as above; details: CDK9/cyclin T1
various kinases [18] = target: various kinases (Homo sapiens, UniProt P51617); assay: as above; details: IRAK1
various kinases [19] = target: various kinases (Homo sapiens, UniProt Q8NEB9); assay: as above; details: PIK3C3 (hVPS34)

Sequence of various kinases (Homo sapiens, UniProt Q86UX6) (Q86UX6 whole entry): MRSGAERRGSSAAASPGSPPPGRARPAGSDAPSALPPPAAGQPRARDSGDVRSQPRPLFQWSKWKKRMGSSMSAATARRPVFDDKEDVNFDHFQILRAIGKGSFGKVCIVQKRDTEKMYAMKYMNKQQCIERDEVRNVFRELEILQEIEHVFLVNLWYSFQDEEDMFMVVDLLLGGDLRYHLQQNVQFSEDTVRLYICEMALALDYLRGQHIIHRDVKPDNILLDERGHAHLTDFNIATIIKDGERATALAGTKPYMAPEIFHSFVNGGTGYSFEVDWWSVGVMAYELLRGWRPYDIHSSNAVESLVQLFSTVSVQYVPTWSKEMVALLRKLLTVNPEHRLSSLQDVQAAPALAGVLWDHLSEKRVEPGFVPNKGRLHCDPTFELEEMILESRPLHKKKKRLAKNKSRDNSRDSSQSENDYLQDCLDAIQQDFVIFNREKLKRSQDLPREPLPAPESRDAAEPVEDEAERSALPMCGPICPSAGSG
Sequence of various kinases (Homo sapiens, UniProt P48736) (P48736 whole entry): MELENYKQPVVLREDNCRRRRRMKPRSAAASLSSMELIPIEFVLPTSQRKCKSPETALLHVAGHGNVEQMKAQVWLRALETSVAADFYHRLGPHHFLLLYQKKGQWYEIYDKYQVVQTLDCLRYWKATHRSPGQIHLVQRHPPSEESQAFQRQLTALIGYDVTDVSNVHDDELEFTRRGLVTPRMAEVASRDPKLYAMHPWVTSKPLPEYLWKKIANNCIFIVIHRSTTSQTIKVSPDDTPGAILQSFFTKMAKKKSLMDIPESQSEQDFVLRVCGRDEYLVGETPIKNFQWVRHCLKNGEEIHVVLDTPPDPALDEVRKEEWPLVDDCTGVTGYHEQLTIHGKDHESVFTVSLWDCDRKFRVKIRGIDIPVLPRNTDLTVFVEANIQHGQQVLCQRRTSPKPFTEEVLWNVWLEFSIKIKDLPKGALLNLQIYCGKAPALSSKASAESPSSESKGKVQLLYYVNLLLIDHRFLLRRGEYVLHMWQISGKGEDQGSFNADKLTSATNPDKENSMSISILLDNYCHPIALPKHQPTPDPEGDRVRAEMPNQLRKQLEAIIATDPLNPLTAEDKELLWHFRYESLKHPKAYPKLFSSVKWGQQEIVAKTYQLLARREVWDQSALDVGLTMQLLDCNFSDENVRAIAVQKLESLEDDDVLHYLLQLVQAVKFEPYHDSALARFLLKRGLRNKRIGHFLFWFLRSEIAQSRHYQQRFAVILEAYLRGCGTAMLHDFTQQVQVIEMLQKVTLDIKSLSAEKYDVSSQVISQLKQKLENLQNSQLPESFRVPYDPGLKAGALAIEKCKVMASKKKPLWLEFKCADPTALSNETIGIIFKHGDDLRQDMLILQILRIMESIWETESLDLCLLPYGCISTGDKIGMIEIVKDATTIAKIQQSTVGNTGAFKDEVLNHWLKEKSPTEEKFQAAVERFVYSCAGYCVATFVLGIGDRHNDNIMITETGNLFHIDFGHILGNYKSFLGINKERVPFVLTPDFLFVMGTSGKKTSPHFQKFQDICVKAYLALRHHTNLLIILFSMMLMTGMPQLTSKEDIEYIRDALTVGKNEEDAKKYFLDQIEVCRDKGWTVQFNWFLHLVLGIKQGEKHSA
Sequence of various kinases (Homo sapiens, UniProt Q9HAZ1) (Q9HAZ1 whole entry): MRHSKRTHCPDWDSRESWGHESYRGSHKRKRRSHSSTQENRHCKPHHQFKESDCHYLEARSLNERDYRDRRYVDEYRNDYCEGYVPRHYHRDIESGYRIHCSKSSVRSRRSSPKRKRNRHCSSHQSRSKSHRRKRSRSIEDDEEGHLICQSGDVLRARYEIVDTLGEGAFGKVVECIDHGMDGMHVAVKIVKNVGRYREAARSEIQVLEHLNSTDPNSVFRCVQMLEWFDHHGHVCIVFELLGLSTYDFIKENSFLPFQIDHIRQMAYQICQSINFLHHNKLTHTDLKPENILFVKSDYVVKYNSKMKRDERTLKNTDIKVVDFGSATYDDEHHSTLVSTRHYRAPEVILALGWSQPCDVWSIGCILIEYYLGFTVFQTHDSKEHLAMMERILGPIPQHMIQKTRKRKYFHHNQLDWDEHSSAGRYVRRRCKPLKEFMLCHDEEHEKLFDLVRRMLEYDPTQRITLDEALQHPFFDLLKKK
Sequence of various kinases (Homo sapiens, UniProt Q99755) (Q99755 whole entry): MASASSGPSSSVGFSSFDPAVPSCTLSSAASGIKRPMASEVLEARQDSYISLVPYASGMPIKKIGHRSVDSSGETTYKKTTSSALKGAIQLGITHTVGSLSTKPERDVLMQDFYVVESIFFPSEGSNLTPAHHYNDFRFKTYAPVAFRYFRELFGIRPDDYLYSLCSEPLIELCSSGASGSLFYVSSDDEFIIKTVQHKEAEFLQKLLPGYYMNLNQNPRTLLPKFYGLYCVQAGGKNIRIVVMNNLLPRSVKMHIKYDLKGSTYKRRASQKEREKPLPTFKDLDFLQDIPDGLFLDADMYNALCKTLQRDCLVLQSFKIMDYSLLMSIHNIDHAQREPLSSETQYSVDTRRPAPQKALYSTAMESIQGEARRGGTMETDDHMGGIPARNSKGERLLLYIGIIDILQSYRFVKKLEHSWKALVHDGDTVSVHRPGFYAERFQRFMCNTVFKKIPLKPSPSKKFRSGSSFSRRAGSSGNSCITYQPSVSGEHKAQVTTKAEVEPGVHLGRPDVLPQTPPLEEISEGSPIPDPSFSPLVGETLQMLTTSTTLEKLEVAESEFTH
Sequence of various kinases (Homo sapiens, UniProt P50750) (P50750 whole entry): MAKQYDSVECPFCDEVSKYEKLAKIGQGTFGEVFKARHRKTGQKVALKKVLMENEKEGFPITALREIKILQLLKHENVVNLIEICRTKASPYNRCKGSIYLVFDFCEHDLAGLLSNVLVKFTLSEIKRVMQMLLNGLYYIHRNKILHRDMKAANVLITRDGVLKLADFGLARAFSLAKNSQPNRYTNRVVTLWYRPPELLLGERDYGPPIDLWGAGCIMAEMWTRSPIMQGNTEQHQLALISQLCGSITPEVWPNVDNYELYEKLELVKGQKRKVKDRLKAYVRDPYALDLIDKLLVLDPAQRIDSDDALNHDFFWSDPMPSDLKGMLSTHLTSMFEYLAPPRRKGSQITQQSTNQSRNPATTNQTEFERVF
Sequence of various kinases (Homo sapiens, UniProt P42336, E545K) (P42336 whole entry E545K): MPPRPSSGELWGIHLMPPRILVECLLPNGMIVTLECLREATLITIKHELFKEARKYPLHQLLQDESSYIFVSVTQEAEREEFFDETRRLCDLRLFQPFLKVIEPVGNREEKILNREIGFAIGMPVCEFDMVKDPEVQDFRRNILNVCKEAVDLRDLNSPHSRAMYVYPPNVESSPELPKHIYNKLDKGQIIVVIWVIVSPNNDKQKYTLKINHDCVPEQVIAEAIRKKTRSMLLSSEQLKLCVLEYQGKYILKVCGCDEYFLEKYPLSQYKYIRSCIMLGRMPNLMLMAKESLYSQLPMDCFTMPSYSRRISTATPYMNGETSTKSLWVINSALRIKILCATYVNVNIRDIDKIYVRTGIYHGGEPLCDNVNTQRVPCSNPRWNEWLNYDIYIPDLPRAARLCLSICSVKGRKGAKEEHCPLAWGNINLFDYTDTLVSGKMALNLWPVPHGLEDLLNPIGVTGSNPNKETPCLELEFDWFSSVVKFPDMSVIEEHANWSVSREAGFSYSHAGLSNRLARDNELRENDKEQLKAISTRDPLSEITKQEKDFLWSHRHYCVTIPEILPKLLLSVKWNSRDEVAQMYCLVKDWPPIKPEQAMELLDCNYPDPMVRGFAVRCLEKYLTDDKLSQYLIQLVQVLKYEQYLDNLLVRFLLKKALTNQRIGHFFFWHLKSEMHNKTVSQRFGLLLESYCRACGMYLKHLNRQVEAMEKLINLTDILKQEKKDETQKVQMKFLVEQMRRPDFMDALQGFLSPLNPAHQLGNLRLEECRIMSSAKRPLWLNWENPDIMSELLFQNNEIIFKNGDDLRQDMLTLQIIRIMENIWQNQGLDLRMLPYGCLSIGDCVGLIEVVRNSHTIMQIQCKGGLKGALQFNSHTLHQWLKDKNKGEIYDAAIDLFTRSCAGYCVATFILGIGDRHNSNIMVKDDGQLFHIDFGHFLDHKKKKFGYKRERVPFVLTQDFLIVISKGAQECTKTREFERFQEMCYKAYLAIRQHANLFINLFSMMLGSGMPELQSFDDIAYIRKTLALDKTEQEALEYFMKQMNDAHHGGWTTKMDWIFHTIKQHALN
Sequence of various kinases (Homo sapiens, UniProt Q8TF76) (Q8TF76 whole entry): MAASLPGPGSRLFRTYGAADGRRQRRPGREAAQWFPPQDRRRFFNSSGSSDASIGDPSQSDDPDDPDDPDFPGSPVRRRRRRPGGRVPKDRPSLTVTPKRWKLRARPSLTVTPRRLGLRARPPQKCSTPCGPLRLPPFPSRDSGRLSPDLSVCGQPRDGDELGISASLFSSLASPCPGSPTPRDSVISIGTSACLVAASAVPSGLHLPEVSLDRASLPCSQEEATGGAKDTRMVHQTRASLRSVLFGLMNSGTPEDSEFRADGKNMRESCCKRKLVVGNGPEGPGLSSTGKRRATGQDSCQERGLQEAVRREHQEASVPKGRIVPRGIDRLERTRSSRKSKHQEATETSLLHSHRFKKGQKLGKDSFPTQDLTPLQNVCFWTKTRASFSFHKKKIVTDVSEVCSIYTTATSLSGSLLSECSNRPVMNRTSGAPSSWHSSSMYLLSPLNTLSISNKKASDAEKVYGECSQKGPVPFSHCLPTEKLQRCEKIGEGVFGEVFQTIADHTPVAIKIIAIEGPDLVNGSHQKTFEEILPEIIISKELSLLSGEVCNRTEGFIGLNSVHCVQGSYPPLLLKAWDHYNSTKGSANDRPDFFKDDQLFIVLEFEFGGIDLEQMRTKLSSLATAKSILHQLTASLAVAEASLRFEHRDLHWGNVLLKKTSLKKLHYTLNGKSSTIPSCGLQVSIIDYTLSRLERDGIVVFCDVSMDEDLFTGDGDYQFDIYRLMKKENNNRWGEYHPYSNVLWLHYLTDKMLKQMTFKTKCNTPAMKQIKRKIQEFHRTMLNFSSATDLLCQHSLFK

Compound: COc1ccc2c(c1)[C@]1(C[C@H]1c1ccc3c(/C=C/c4ccc(CN5C[C@@H](C)O[C@@H](C)C5)cc4)n[nH]c3c1)C(=O)N2 [CFI-400945]
- % Inhibition (various kinases [1]): -1% and 4%
- % Inhibition (various kinases [2]): 45% and 35%
- % Inhibition (various kinases [3]): 1% and 2%
- % Inhibition Average (various kinases [4]): 15%
- % Inhibition Duplicate #1 (various kinases [4]): 14%
- % Inhibition Duplicate #2 (various kinases [4]): 17%
- % Inhibition (various kinases [5]): 1% and -2%
- % Inhibition (various kinases [6]): 1% and 10%
- % Inhibition (various kinases [7]; ALK T1151_L1152insT): 31% and 35%
- % Inhibition (various kinases [7]; EGFR (ErbB1) d747-749 A750P): 12% and 23%
- % Inhibition (various kinases [7]; FLT3 ITD): 45% and 41%
- % Inhibition (various kinases [7]; MAP3K7/MAP3K7IP1 (TAK1-TAB1)): 8%
- % Inhibition Average (various kinases [8]): 31%
- % Inhibition Duplicate #1 (various kinases [8]): 31%
- % Inhibition Duplicate #2 (various kinases [8]): 30%
- % Inhibition (various kinases [9]): 29%
- % Inhibition (various kinases [10]): 4% and 10%
- paradoxical effect on centriole number [11]: not observed
- FC, delay in reaching confluency (DAOY MB cells): 1.70
- centrioles' number (MON rhabdoid cells; 100nM): slight increase
- centrioles' number (MON rhabdoid cells; 500nM): significant depletion
- % Inhibition (various kinases [12]): -2% and -8%
- % Inhibition (various kinases [13]): -7% and 3%
- % Inhibition (various kinases [14]): -3% and 4%
- % Inhibition (various kinases [15]): -2% and -5%
- % Inhibition (various kinases [16]): -5% and -9%
- % Inhibition (various kinases [17]): 17% and 14%
- % Inhibition (various kinases [18]): -8% and -12%
- % Inhibition (various kinases [19]): 8% and 15%
